Test results from publication PMC7179653 (Antimicrobial Agents and Chemotherapy, 2020).

What was measured:
[1] = MAD study: safety and tolerability (TEAEs, laboratory safety tests); format: in vivo, human; conditions: for TEAE: Catheter site pain / TEAE: Diarrhea / TEAE: Ecchymosis / TEAE: Headache / TEAE: Infusion site extravasation / TEAE: Injection site erythema / TEAE: Injection site extravasation / TEAE: Injection site hemorrhage / TEAE: Injection site injury / TEAE: Injection site pain / TEAE: Medical device site erythema (erythema at the ECG patch sites) / TEAE: Nausea / TEAE: Phlebitis / TEAE: Scratch / TEAE: Vessel puncture site hemorrhage / Withdrawn due to AE / ≥1 TEAE / ≥1 drug-related TEAE / ≥1 serious TEAE: n = 6
Method: The MAD study consisted of three parts (Fig. 1). […] Participants were enrolled in two sequential cohorts (cohort 1, followed by cohort 2). […] Participants were also enrolled in two sequential cohorts (cohort 3, followed by cohort 4). […] A washout period of approximately 24 h between treatments was provided. A sentinel dosing strategy was employed in both studies. […] In all cohorts, escalation to the next dose occurred after a safety review of the previous cohort. In the MAD study, sentinel dosing was performed in part 3, wherein participants were evaluated for safety up to 24 h after administration of the first drug combination (or placebo) on day 3, prior to enrolling additional participants. Safety assessments included monitoring of AEs, laboratory safety tests (hematology, serum chemistry, and urinalysis), 12-lead ECG (discrete recordings and 24-h Holter recording), and vital signs (blood pressure, pulse rate, and body temperature). In the SAD study, safety assessments were performed predose at screening, at day 1, postdose periodically on days 1, 2, and 7 (follow-up), and at early withdrawal, if relevant. […] In the MAD study, safety assessments were done predose at screening, at day 2, postdose periodically on days 1, 2, 4, 7, and 8, on days 13 to 15 (follow-up), and at early withdrawal, if relevant. […] On all other days, a single predose sample was collected for pharmacokinetic evaluation prior to the morning infusion. Blood was collected into lithium-heparin tubes and stored at a nominal –80°C temperature until analysis.

[2] = parameters: method as in unpublished data; conditions: ref unpublished data; cited from earlier work
[3] = Drug-drug interaction analysis nacubactam/meropenem (ANCOVA, geometric mean ratios); format: in vivo, human; conditions: nacubactam 2,000 mg single dose, 90% CI
Method: All participants in the active group received a single 2,000-mg dose of both drugs on day 3 and q8h on days 4 to 8, with a final single dose of both drugs on the morning of day 9. A washout period of approximately 24 h between treatments was provided.

[4] = MAD parts 1 and 2, 8,000 mg (single dose)

## NCCONC(=O)[C@@H]1CC[C@@H]2CN1C(=O)N2OS(=O)(=O)O [Nacubactam]
[1]; MAD monotherapy phase (parts 1 and 2), 13 of the 24 participants
  participants reporting AEs: 54.2%
[1]; MAD monotherapy phase (parts 1 and 2), 24 participants
  total number of AEs: 48
[1]; MAD parts 1 and 2, 1,000 mg
  TEAE: Catheter site pain: 1/1
  TEAE: Diarrhea: 0 n/E
  TEAE: Ecchymosis: 1/1
  TEAE: Headache: 1/1
  TEAE: Infusion site extravasation: 1/1
  TEAE: Injection site erythema: 1/1
  TEAE: Injection site extravasation: 0 n/E
  TEAE: Injection site hemorrhage: 0 n/E
  TEAE: Injection site injury: 0 n/E
  TEAE: Injection site pain: 0 n/E
  TEAE: Medical device site erythema (erythema at the ECG patch sites): 0 n/E
  TEAE: Nausea: 0 n/E
  TEAE: Phlebitis: 0 n/E
  TEAE: Scratch: 0 n/E
  TEAE: Vessel puncture site hemorrhage: 0 n/E
  Withdrawn due to AE: 0 n
  ≥1 TEAE: 4/8
  ≥1 drug-related TEAE: 2/2
  ≥1 serious TEAE: 0 n
[1]; MAD parts 1 and 2, 2,000 mg
  TEAE: Catheter site pain: 0 n/E
  TEAE: Diarrhea: 0 n/E
  TEAE: Ecchymosis: 0 n/E
  TEAE: Headache: 0 n/E
  TEAE: Infusion site extravasation: 0 n/E
  TEAE: Injection site erythema: 0 n/E
  TEAE: Injection site extravasation: 1/1
  TEAE: Injection site hemorrhage: 0 n/E
  TEAE: Injection site injury: 0 n/E
  TEAE: Injection site pain: 0 n/E
  TEAE: Medical device site erythema (erythema at the ECG patch sites): 0 n/E
  TEAE: Nausea: 0 n/E
  TEAE: Phlebitis: 0 n/E
  TEAE: Scratch: 0 n/E
  TEAE: Vessel puncture site hemorrhage: 0 n/E
  Withdrawn due to AE: 0 n
  ≥1 TEAE: 2/3
  ≥1 drug-related TEAE: 2/2
  ≥1 serious TEAE: 0 n
[1]; MAD parts 1 and 2, 4,000 mg
  TEAE: Catheter site pain: 0 n/E
  TEAE: Diarrhea: 0 n/E
  TEAE: Ecchymosis: 0 n/E
  TEAE: Headache: 1/1
  TEAE: Infusion site extravasation: 0 n/E
  TEAE: Injection site erythema: 1/1
  TEAE: Injection site extravasation: 1/1
  TEAE: Injection site hemorrhage: 2/2
  TEAE: Injection site injury: 2/2
  TEAE: Injection site pain: 3/3
  TEAE: Medical device site erythema (erythema at the ECG patch sites): 4/4
  TEAE: Nausea: 0 n/E
  TEAE: Phlebitis: 0 n/E
  TEAE: Scratch: 1/1
  TEAE: Vessel puncture site hemorrhage: 2/2
  Withdrawn due to AE: 0 n
  ≥1 TEAE: 6/36
  ≥1 drug-related TEAE: 3/3
  ≥1 serious TEAE: 0 n
[1]; [4]
  TEAE: Catheter site pain: 0 n/E
  TEAE: Diarrhea: 0 n/E
  TEAE: Ecchymosis: 0 n/E
  TEAE: Headache: 0 n/E
  TEAE: Infusion site extravasation: 0 n/E
  TEAE: Injection site erythema: 0 n/E
  TEAE: Injection site extravasation: 0 n/E
  TEAE: Injection site hemorrhage: 0 n/E
  TEAE: Injection site injury: 0 n/E
  TEAE: Injection site pain: 0 n/E
  TEAE: Medical device site erythema (erythema at the ECG patch sites): 0 n/E
  TEAE: Nausea: 0 n/E
  TEAE: Phlebitis: 0 n/E
  TEAE: Scratch: 0 n/E
  TEAE: Vessel puncture site hemorrhage: 0 n/E
  Withdrawn due to AE: 0 n
  ≥1 TEAE: 1/1
  ≥1 drug-related TEAE: 0 n/E
  ≥1 serious TEAE: 0 n
[1]; all single doses up to 8,000 mg and multiple doses up to 4,000 mg q8h
  tolerability: well tolerated
[1]; alone (50 to 8,000 mg) or coadministered with meropenem (2,000 mg each), both studies
  serious AEs: no serious AEs were reported
[1]; nacubactam alone, validated measures of renal function and exploratory urine kidney biomarkers
  effect on kidney function: no significant effects on kidney function
[2]
  fraction unbound: 0.98
  protein binding: 2%
[3]; 0.85 to 1.07
  CLR GMR, monotherapy vs combination with meropenem: 0.95
[3]; 0.87 to 1.11
  Vss GMR, monotherapy vs combination with meropenem: 0.98
